pKi: −log10 of the molar value. Non-standard residues stand in square brackets, D forms with d. Residues, ends and D or L forms follow the SMILES beside them. *: point of attachment. Sta = CC(C)C[C@H](N)[C@@H](O)CC(=O)O; Isovaleryl = CC(C)CC(=O)*
Legend:
[1] = tested on: hypertensive rats; test: blood pressure in rats with renal hypertension (aortic ligature between the renal arteries); assay type: in vivo, rat; conditions: for decrease of blood pressure: intravenous 350 nmoles, thirteen Saralasin-responder rats, pooled value (2 rats methyl ester, 11 rats arginine salt)
Description: The experimental model of renal hypertension developped in rats by ROJO-ORTEGA and GENEST [Can. J.Phys. Pharm. 46 883-885 (1968)] was used.
A complete ligature of the aorta between the renal arteries was performed in twenty male Sprague-Dawley rats, weighing 300 g. They were investigated between 5 and 10 days after surgery. The blood pressure was measured in the conscious unrestrained rats, through a carotid cannula inserted 24 hours before measurements were made.
The maximal decrease in blood pressure induced by an injection of "Saralasin" was compared [Sar 1, Ala-8 Angiotensin II] in the same animals, to the maximum fall in blood pressure induced by the soluble derivatives of pepstatin according to the invention.
In these thirteen rats, the average blood pressure decrease was 44.5±8.5 mmHg. The intravenous injection of 350 nmoles of pepstatinyl-Arginine-O-Methyl Ester (2 rats), or the Arginine salt of Pepstatinyl (11 rats) decreased blood pressure by 48.3±8.2 mmHg. The maximal fall in blood pressure was obtained 5 minutes after Saralasin, and 6 minutes after soluble pepstatin. Blood pressure returned to the control level 10 minutes after the injection of both inhibitors.

[2] = molecular target: hog renin; test: in vitro inhibition of hog renin on synthetic N-acetylated tetradecapeptide substrate, fluorimetry, Dixon plot; assay type: biochemical; conditions: 10 milli-Goldblatt units hog renin, pH 6, one hour, 37° C., Dixon representation; read-out: inhibition constant
Description: 10 milli-Goldblatt units of hog renin, from the same source as above, were incubated at pH 6 for one hour at 37° C. in the presence of a synthetic substrate constituted by a N-acetylated renin tetradecapeptide [GALEN et al. Biochem. Biophys. Acta, 523, 485-493 (1978)]. The tetrapeptide quantity produced per hour of incubation was measured by fluorimetry. Three different concentrations of N-acetylated tetradecapeptide were used, that is to say 2.3, 4.6 and 9.3 nmoles with increasing amounts of pepstatin or methyl ester of pepstatin-[…].25, 0.50 and 0.75 10^-6 mole/l).

| pKi [2] | SMILES | rats with a blood pressure fall of 10 mmHg and more ([1]; among 20 hypertensive rats, intravenous 140 nmoles) [rats] | time of maximal fall in blood pressure after injection ([1]; intravenous 140 nmoles) [min] | time of return of blood pressure to the control level after injection ([1]; intravenous 140 nmoles) [min] | average blood pressure decrease ([1]; intravenous 140 nmoles, thirteen responder rats) [mmHg] | decrease of blood pressure [1] [mmHg] |
| --- | --- | --- | --- | --- | --- | --- |
| – | CNCC(=O)N[C@@H](CCCN=C(N)N)C(=O)N[C@H](C(=O)N[C@@H](Cc1ccc(O)cc1)C(=O)N[C@H](C(=O)N[C@@H](Cc1cnc[nH]1)C(=O)N1CCC[C@H]1C(=O)N[C@@H](C)C(=O)O)C(C)C)C(C)C [Saralasin, Sar 1, Ala-8 Angiotensin II] | 13 | 5 | 10 | 44.5±8.5 | – |
| 6.50 | COC(=O)[C@H](CCCNC(=N)N)NC(=O)C[C@H](O)[C@H](CC(C)C)NC(=O)[C@H](C)NC(=O)C[C@H](O)[C@H](CC(C)C)NC(=O)[C@@H](NC(=O)[C@@H](NC(=O)CC(C)C)C(C)C)C(C)C [methyl ester of pepstatin-arginine] (Isovaleryl-VV[Sta]A[Sta]R-OMe) | – | – | – | – | 48.3±8.2 |
| – | CC(C)CC(=O)N[C@H](C(=O)N[C@H](C(=O)N[C@@H](CC(C)C)[C@@H](O)CC(=O)N[C@@H](C)C(=O)N[C@@H](CC(C)C)[C@@H](O)CC(=O)N[C@@H](CCCNC(=N)N)C(=O)O)C(C)C)C(C)C [pepstatin-arginine] (Isovaleryl-VV[Sta]A[Sta]R-OH) | – | – | – | – | 48.3±8.2 |

Reference: patent US4185096A, “Novel derivatives of pepstatin, their preparation and compositions containing them” (Agence Nationale de Valorisation de la Recherche (ANVAR), priority 1977, dated 1980)
